Source: PubChem BioAssay (NCI)
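Grown in 96-well plates, cells were treated for 48 hours with each compound at five concentrations. Insufficient inhibition: endpoint recorded as highest concentration tested. At the GI50, growth is halved. At the TGI there is no net growth.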

Tests used:
Test in all cases: inhibition of tumour cell growth, NCI panel, 48 h
BT-549 breast = test system: BT-549 breast
MCF7 breast = test system: MCF7 breast
T-47D breast = test system: T-47D breast

| SMILES | GI50 (BT-549 breast) | TGI (BT-549 breast) | GI50 (MCF7 breast) | TGI (MCF7 breast) | GI50 (T-47D breast) | TGI (T-47D breast) |
| --- | --- | --- | --- | --- | --- | --- |
| O=C(/C=C/c1ccc([N+](=O)[O-])o1)NNC(=O)c1cc2ccccc2cc1O | 1.49 µM | 5.74 µM | 0.824 µM | > 100 µM | 1.51 µM | 5.77 µM |
| Cc1ccc2c(c1)sc(-c1ccc(N(C)C)cc1)[n+]2C | 0.464 µM | 8.08 µM | 0.745 µM | 28.3 µM | 0.299 µM | 5.59 µM |
| COc1cccc2c(=O)c3c(sc12)c(NCCCN)nc1ccccc13 | 10.8 µM | 26.5 µM |  |  |  |  |
| CC1(C)C(=O)/C(=C\c2ccco2)C[C@]2(C)[C@H]3CC=C4[C@@H]5C[C@](C)(C(=O)O)CC[C@]5(C)CC[C@@]4(C)[C@]3(C)CC[C@@H]12 | 9.46 µM | 25.4 µM | 5.42 µM | 26.2 µM | 5.66 µM | 35.1 µM |
| CCN(CC)C(=S)SSC1CCCCC1 | 19 µM | 46.5 µM | 14.4 µM | 30.4 µM | 22.2 µM | 66.4 µM |
| C=C1C(O)C2C(=C(CC(C)C)C13CC3)C(=O)C(C)(C)C2OC (stereo not drawn) | > 100 µM | > 100 µM | > 100 µM | > 100 µM | > 100 µM | > 100 µM |
| O=C(Nc1ccc(Br)cc1)c1cc(Br)cc(Br)c1O | 3.08 µM | 14.4 µM | 2.46 µM | > 100 µM | 2.74 µM | 28.4 µM |
| CN(C)CN1C(=O)S/C(=C2\C(=O)N(CN(C)C)c3ccccc32)C1=O |  | > 100 µM |  | > 100 µM |  | > 100 µM |
| O=C1OCC2=Nc3cccc4cccc(c34)N12 |  | > 100 µM |  | > 100 µM |  | > 100 µM |
| CCCCc1cc(O)ccc1O | 6.12 µM | > 100 µM | 40.4 µM | > 100 µM | 15.9 µM | 67.5 µM |
| Cc1cc(O)cc(C)c1/C=C/c1cncc(C(=O)N(C)C)c1 | > 25 µM | > 25 µM | > 25 µM | > 25 µM | > 25 µM | > 25 µM |
| C=C1C(=O)O[C@H]2[C@H]1CC/C(COC(=O)c1ccc(C(=O)O)s1)=C\CC[C@@]1(C)O[C@@H]21 | 1.72 µM | 4.85 µM |  |  | 2.22 µM | 5.53 µM |
| O=C(N/N=C/c1ccc(F)cc1)c1[nH]c2ccc(I)cc2c1-c1ccccc1 | 2.15 µM | 22.9 µM | 0.339 µM | 18.6 µM |  |  |
| OC1CCC(C2C3CCCCC3C3CCCCC3C2C2CCC(O)CC2)CC1 (stereo not drawn) |  | 8.87 µM |  | 34.3 µM |  | 11 µM |
| CCC(=O)N1C/C(=C/c2ccc(OC)cc2)C(=O)/C(=C/c2ccc(OC)cc2)C1 | 1.88 µM | 3.5 µM | 0.498 µM | 12.2 µM | 5.1 µM | > 100 µM |
| CCc1ccc(C2=C(O)C(=O)C(c3ccc(CC)cc3)=C(O)C2=O)cc1 | 1.76 µM | 5.62 µM | 1.83 µM | 5.05 µM | 1.9 µM | 6.65 µM |
| O=c1c(OC/C(=N/O)c2ccccc2)c(-c2ccccc2)oc2ccccc12 | 13.2 µM | 26.8 µM |  |  | 14.8 µM | 38.1 µM |
| C=C(CNCCO)[C@@H]1CC[C@]2(CO)CC[C@]3(C)[C@H](CC[C@@H]4[C@@]5(C)CCC(NCCc6ccc(O)cc6)C(C)(C)[C@@H]5CC[C@]43C)[C@@H]12 (stereo partly drawn) | 1.55 µM | 3.23 µM | 0.339 µM | 1.48 µM | 1.74 µM | 3.55 µM |
| O=Nc1c2cccnc2n2nnc3ccc(Cl)cc3c12 | 3.57 µM | 12.3 µM | 0.792 µM | 3.39 µM | 0.412 µM | 1.7 µM |
| COC(=O)c1ccc2c(c1)c1c(C)c3cnccc3c(C)c1n2C | 0.247 µM | 3.54 µM | 0.109 µM | 0.511 µM | 0.28 µM | 2.25 µM |
| OC1CCC(Oc2cccc3cnc(Nc4ccc5nc[nH]c5c4)nc23)CC1 (stereo not drawn) | 0.22 µM | 0.906 µM | 0.217 µM | 3.1 µM | 1.03 µM | 14.4 µM |
| NC(N)=N/N=C/c1c(-c2cc(Cl)sc2Cl)nc2n1CCS2 | 8.51 µM | 17.3 µM | 10.6 µM | 25.3 µM |  |  |
| ClCCn1cnc2c(SCc3ccccc3)ncnc21 | 0.685 µM | > 100 µM | 1.65 µM | > 100 µM | 11.7 µM | > 100 µM |
| CC1=CC[C@@H]2C(C)(C)[C@@H](O)CC[C@@]2(C)[C@@H]1COc1ccc2ccc(=O)oc2c1 | 2.9 µM | 8.23 µM | 7.3 µM | 27 µM | 2.27 µM | 7.14 µM |
| CN(C)CCNc1cccc2sc3ccc(O)cc3c(=O)c12 | 9.2 µM | 23.5 µM | 1.14 µM | 2.96 µM | 2.56 µM | 12.8 µM |
| N#CC1C(N)=NNC1c1ccc(-c2ccc(-c3nc4ccccc4o3)cc2)o1 (stereo not drawn) | 24 µM | 75.7 µM |  |  | 68.5 µM | > 100 µM |
